In patent publication US20250009856A1, “METHODS FOR TREATING RESPIRATORY DISEASES” (MUCPharm Pty Ltd, priority 2021, published 2025):
Values joined by “and” are separate entries in the source; they are usually repeats but may differ in a detail not shown here. Equal values may be shown once.

How the values were obtained:
[1] = Pipette flow speed after aerosol treatment; conditions: AS; for Pipette flow speed (€), After: before 0.005 ± 0.001
Procedure: Artificial sputum was prepared following protocol as detailed by […] et al (Kirchner, S., et al., Use of artificial sputum medium to test antibiotic efficacy against Pseudomonas aeruginosa in conditions more relevant to the cystic fibrosis lung. Journal of visualized experiments: JOVE, 2012 (64)). Briefly 250 mg of porcine mucin, 200 mg of sperm DNA, 295 mg of diethylene triamine pentaacetic acid (DPTA), 25 mg sodium chloride, 110 mg potassium chloride, 140 mg Tris base were mixed in a volume of 45 ml of distilled water and pH adjusted to 7.0 using Trisbase. The volume of the solution was then adjusted to 50 ml. Further dilutions were then carried out to adjust viscosity as desired. Using a 0.5 ml glass pipette fixed at an angle of 60°, 0.5 ml of sample at 25° C. (ambient room temperature) was sucked up the pipette and the time taken to empty 0.3 ml of the sample was timed in sec. Pipette flow time (€) was calculated as follows: € (ml/sec)=0.3 ml/Time to empty 0.3 ml (sec) Artificial sputa (AS) were prepared as detailed above, and 1.5 ml of artificial sputum was carefully emptied into an endotracheal tube (in triplicates). A volume of 6.0 ml of NAC 10 mg/ml in PBS (pH.7.0) in triplicate was aerosolised using a nebulizer and passed over the sputum samples in the endotracheal tubes kept at 37° C. in a water bath. Similarly, the experiments were repeated using NAC 20 mg/ml in PBS (pH.7.0). The controls only received PBS (pH 7.0). The aerosol delivery time to empty 6.0 ml for each treatment was 25 min. The dynamic viscosity of the sputa was measured before and after using the capillary tube method, whilst the pipette flow time was also measured as described earlier using a 0.5 ml glass pipette. Samples were equilibrated to 25° C. before measurement A similar treatment as in the experiment described above for NAC was carried out using Bromelain (125 and 250 μg/ml) in PBS (pH.7.0) along with control using PBS (pH.7.0). Both dynamic viscosity and pipette flow time was measured as outlined earlier for both artificial and PMP simulated sputa models. Using a combination of NAC (20 mg/ml) with either 125 or 250 μg/ml Bromelain in PBS (pH.7.0), a similar investigation was carried out as outlined earlier and measurements were made for both artificial and simulated sputa models. D=(TREATED)-(UNTREATED/(UNTREATED)×100.

[2] = Dynamic viscosity (capillary tube) after aerosol treatment; parameters: species or system human; conditions: SS; for Dynamic viscosity (γ), After: before 1.748 ± 0.006
Procedure: Six grams of soft PMP mucin was homogenised using a shredder with phosphate buffer saline (PBS) (3.0 ml) with sonification and vortexed until a homogenous mixture was formed, with incubation at 37° C. to remove air bubbles and after which viscosity was adjusted (further dilutions with PBS). The pH was adjusted to 7.0 using either 1.0 M NaOH or 0.1 N Hydrochloric acid. Dynamic viscosity (Y) of sputum was measured using the capillary tube method as outlined in […]. and G. Castellano, Determination of the kinematic viscosity by the liquid rise in a capillary tube. […] Ensino de Física, 2013. 35. A similar investigation as above was carried out to determine a comparative dynamic viscosity and pipette flow time for PMP mucin simulated sputa (SS). A similar treatment as in the experiment described above for NAC was carried out using Bromelain (125 and 250 μg/ml) in PBS (pH.7.0) along with control using PBS (pH.7.0). Both dynamic viscosity and pipette flow time was measured as outlined earlier for both artificial and PMP simulated sputa models. Using a combination of NAC (20 mg/ml) with either 125 or 250 μg/ml Bromelain in PBS (pH.7.0), a similar investigation was carried out as outlined earlier and measurements were made for both artificial and simulated sputa models. D=(TREATED)-(UNTREATED/(UNTREATED)×100.

[3] = as above; conditions: AS; for Dynamic viscosity (γ), After: before 1.382 ± 0.013
Procedure: Artificial sputum was prepared following protocol as detailed by […] et al (Kirchner, S., et al., Use of artificial sputum medium to test antibiotic efficacy against Pseudomonas aeruginosa in conditions more relevant to the cystic fibrosis lung. Journal of visualized experiments: JOVE, 2012 (64)). Briefly 250 mg of porcine mucin, 200 mg of sperm DNA, 295 mg of diethylene triamine pentaacetic acid (DPTA), 25 mg sodium chloride, 110 mg potassium chloride, 140 mg Tris base were mixed in a volume of 45 ml of distilled water and pH adjusted to 7.0 using Trisbase. The volume of the solution was then adjusted to 50 ml. Further dilutions were then carried out to adjust viscosity as desired. Dynamic viscosity (Y) of sputum was measured using the capillary tube method as outlined in […]. and G. Castellano, Determination of the kinematic viscosity by the liquid rise in a capillary tube. […] Ensino de Física, 2013. 35. Artificial sputa (AS) were prepared as detailed above, and 1.5 ml of artificial sputum was carefully emptied into an endotracheal tube (in triplicates). A volume of 6.0 ml of NAC 10 mg/ml in PBS (pH.7.0) in triplicate was aerosolised using a nebulizer and passed over the sputum samples in the endotracheal tubes kept at 37° C. in a water bath. Similarly, the experiments were repeated using NAC 20 mg/ml in PBS (pH.7.0). The controls only received PBS (pH 7.0). The aerosol delivery time to empty 6.0 ml for each treatment was 25 min. The dynamic viscosity of the sputa was measured before and after using the capillary tube method, whilst the pipette flow time was also measured as described earlier using a 0.5 ml glass pipette. Samples were equilibrated to 25° C. before measurement A similar treatment as in the experiment described above for NAC was carried out using Bromelain (125 and 250 μg/ml) in PBS (pH.7.0) along with control using PBS (pH.7.0). Both dynamic viscosity and pipette flow time was measured as outlined earlier for both artificial and PMP simulated sputa models. Using a combination of NAC (20 mg/ml) with either 125 or 250 μg/ml Bromelain in PBS (pH.7.0), a similar investigation was carried out as outlined earlier and measurements were made for both artificial and simulated sputa models. D=(TREATED)-(UNTREATED/(UNTREATED)×100.

SPF rabbits = assay: Tolerability study of inhaled BromAc in rabbit model; conditions: Ac 20 mg inhaled; 48 h

CC(=O)N[C@@H](CS)C(=O)O [NAC, N-acetylcysteine]
D (%), increase of pipette flow speed (€) ([1]; aerosol NAC 10 mg/ml): 28% and 28 ↑ % | Pipette flow speed (€), After ([1]; aerosol NAC 10 mg/ml): 0.0064 ± 0.003 mL/s | D (%), increase of pipette flow speed (€) ([1]; aerosol NAC 20 mg/ml): 40% and 40 ↑ % | Pipette flow speed (€), After ([1]; aerosol NAC 20 mg/ml): 0.007 ± 0.001 mL/s | D (%), decrease of dynamic viscosity (γ) ([2]; aerosol NAC 10 mg/ml): 16% and 16 ↓ % | Dynamic viscosity (γ), After ([2]; aerosol NAC 10 mg/ml): 1.467 ± 0.011 cSt | D (%), decrease of dynamic viscosity (γ) ([2]; aerosol NAC 20 mg/ml): 17% and 17 ↓ % | Dynamic viscosity (γ), After ([2]; aerosol NAC 20 mg/ml): 1.453 ± 0.055 cSt | D (%), decrease of dynamic viscosity (γ) ([3]; aerosol NAC 10 mg/ml): 6.0% and 6.0 ↓ % | Dynamic viscosity (γ), After ([3]; aerosol NAC 10 mg/ml, 6.0 ml over 25 min, 37° C.): 1.300 ± 0.002 cSt | D (%), decrease of dynamic viscosity (γ) ([3]; aerosol NAC 20 mg/ml): 9.8% and 10% and 9.8 ↓ % | Dynamic viscosity (γ), After ([3]; aerosol NAC 20 mg/ml): 1.247 ± 0.041 cSt | Incident: Broncho-interstitial pneumonia, multifocal, mild (SPF rabbits): 1 out of 4 | Incident: Broncho-interstitial pneumonia, multifocal, mild, granulomatous (SPF rabbits): 3 out of 4
